pIC50: −log10 of the molar value. In brackets after ≈: the same amount, converted by molar mass. Square brackets hold non-standard residues; d marks the D form. Peptide text beside a SMILES is read from it. * marks the point of attachment. ξ: configuration not given here. boroAla((+)-pinanediol) = C[C@H](N*)B1O[C@@H]2C[C@@H]3C[C@@H](C3(C)C)[C@]2(C)O1; Biphenylcarbonyl(4'-Bu) = CCCCc1ccc(-c2ccc(C(=O)*)cc2)cc1; X1 = C[C@H](N*)B1OC2C[C@@H]3C[C@@H](C3(C)C)[C@]2(C)O1; Benzoyl(4-(4-Cl-Ph)) = O=C(c1ccc(-c2ccc(Cl)cc2)cc1)*; Lys(Me3) = C[N+](C)(C)CCCC[C@H](N)C(=O)O; X4 = CCCCc1ccc(-c2c[nH]c(C(=O)*)c2)cc1; Gly(cPr) = N[C@H](C(=O)O)C1CC1; Thr(3ξ) = CC(O)[C@H](N)C(=O)O; X6 = C[C@@H](N*)C(=O)C(N)=O; boroAla = C[C@H](N*)B(O)O; Dab = NCC[C@H](N)C(=O)O; Abu = CC[C@H](N)C(=O)O; Dap = NC[C@H](N)C(=O)O; βAla = NCCC(=O)O
How the values were obtained:
[1] = biological target: E. coli SPase (Escherichia coli, UniProt P00803); test: Biochemical SPase activity assay (fluorogenic peptide substrate), E. coli enzyme
[2] = test system: methicillin resistant Staphylococcus aureus (MRSA) strain USA300 (NRS384); details: Method B, 35° C., 22 hours
Protocol: In vitro antimicrobial activity of each compound was determined by measuring minimal inhibitor concentrations (MICs) using the broth micro-dilution technique as approved by the Clinical and Laboratory Standards Institute (CLSI). […] Bacterial inocula were prepared by scraping cells into 1 mL of testing media (cation adjusted Mueller Hinton Broth supplemented with 0.002% v/v Tween-80) and diluting to a final OD600 nm of 0.01.
Test compounds were prepared in DMSO at a concentration of 10 mg/ml. […] Bacterial inocula were added to the two fold serial dilutions of test compounds to a final density of OD OD600 nm of 0.0005 and incubated stationarily at 35° C. for 22 hours, after which the plates were examined visually.

[3] = biological target: S. aureus SPase (Staphylococcus aureus, UniProt P0A070); test: biochemical
[4] = test system: Escherichia coli strain MC4100 IMP-4213, which harbors an LptD mutation; details: Method B; E. coli MC4100 IMP-4213 (LptD mutation); 35° C., 22 hours
Method in brief: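 Two-fold serial dilutions of compound inoculated at final OD600 0.0005, incubated static at 35 °C for 22 h, and growth read visually.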

Chain of S. aureus SPase (P0A070 whole entry): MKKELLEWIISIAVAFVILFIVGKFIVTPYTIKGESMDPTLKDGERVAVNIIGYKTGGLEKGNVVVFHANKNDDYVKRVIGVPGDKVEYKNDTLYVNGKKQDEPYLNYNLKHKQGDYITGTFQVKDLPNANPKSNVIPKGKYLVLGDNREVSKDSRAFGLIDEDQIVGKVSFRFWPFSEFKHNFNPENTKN
Chain of E. coli SPase (P00803 whole entry): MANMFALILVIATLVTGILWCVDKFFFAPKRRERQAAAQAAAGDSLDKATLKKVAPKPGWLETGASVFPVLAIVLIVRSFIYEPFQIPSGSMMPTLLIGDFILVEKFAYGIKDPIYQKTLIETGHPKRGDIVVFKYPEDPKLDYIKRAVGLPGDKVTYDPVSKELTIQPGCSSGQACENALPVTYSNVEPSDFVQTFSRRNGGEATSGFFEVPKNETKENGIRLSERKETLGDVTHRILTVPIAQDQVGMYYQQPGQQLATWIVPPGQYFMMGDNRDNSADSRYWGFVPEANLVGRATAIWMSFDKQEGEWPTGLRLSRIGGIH

Structure (SMILES) | pIC50 [1] | MIC (μg/mL) S. aureus [2] [µg/mL] | pIC50 [3] | MIC (μg/mL) E. coli [4] [µg/mL]
CCCCc1ccc(-c2ccc(C(=O)N[C@@H](CCCC[N+](C)(C)C)C(=O)N[C@H](C(=O)N[C@@H](C)C(=O)N[C@@H](CCCCN)C(=O)N[C@@H](C)B(O)O)[C@@H](C)O)cc2)cc1 [Compound 159] ({Biphenylcarbonyl(4'-Bu)}-[Lys(Me3)]TAK-boroAla) | 6.62 | 1 | 7.07 | 16
CCCCc1ccc(-c2ccc(C(=O)N3CCC(C(=O)N[C@H](C(=O)N[C@@H](C)C(=O)N[C@@H](CCCCN)C(=O)N[C@@H](C)B4O[C@@H]5C[C@@H]6C[C@@H](C6(C)C)[C@]5(C)O4)[C@@H](C)O)CC3)cc2)cc1 [Compound 272] | 5.89 | 0.71 (≈ 0.815 µM) | 7.30 | 32 (≈ 36.7 µM)
CCCCc1ccc(-c2ccc(C(=O)N[C@@H](CN)C(=O)N[C@@H](CCCCN)C(=O)N[C@@H](C)C(=O)N[C@@H](CCCCN)C(=O)N[C@@H](C)B3O[C@@H]4C[C@@H]5C[C@@H](C5(C)C)[C@]4(C)O3)cc2)cc1 [Compound 184] ({Biphenylcarbonyl(4'-Bu)}-[Dap]KAK-{boroAla((+)-pinanediol)}) | 8.23 | 0.25 (≈ 0.286 µM) | 6.52 | 0.13 (≈ 0.149 µM)
CC(C)C[C@H](NC(=O)[C@H](C)NC(=O)[C@H](CCCCN)NC(=O)[C@H](CCCCN)NC(=O)c1ccc(-c2ccc(Cl)cc2)cc1)C(=O)N[C@@H](C)B1OC2C[C@@H]3C[C@@H](C3(C)C)[C@]2(C)O1 (some centres unmarked) [Compound 145] ({Benzoyl(4-(4-Cl-Ph))}-KKAL-X1) | 7.41 | 3.2 (≈ 3.64 µM) | 6.62 | 5 (≈ 5.69 µM)
CCCCc1ccc(-c2ccc(CNCC[C@H](N)C(=O)N[C@H](C(=O)N[C@@H](C)C(=O)N[C@@H](CCCCN)C(=O)N[C@@H](C)B3OC4C[C@@H]5C[C@@H](C5(C)C)[C@]4(C)O3)[C@@H](C)O)cc2)cc1 (some centres unmarked) [Compound 276] | 5.70 | 0.5 (≈ 0.591 µM) | 6.96 | 16 (≈ 18.9 µM)
CCCCc1ccc(-c2ccc(C(=O)N[C@@H](CCCCN)C(=O)N[C@@H](CCCCN)C(=O)N[C@@H](C)C(=O)N[C@@H](CC(C)C)C(=O)N[C@H](C)C(=O)C(N)=O)cc2)cc1 [Compound 254] ({Biphenylcarbonyl(4'-Bu)}-KKAL-X6) | 5.92 | 8 (≈ 10.1 µM) | 6.18 | 11 (≈ 13.9 µM)
CCCCc1ccc(-c2ccc(C(=O)N[C@@H](CCN)C(=O)N[C@@H](CCN)C(=O)N[C@@H](C)C(=O)N[C@@H](CC(C)C)C(=O)N[C@@H](C)B3O[C@@H]4C[C@@H]5C[C@@H](C5(C)C)[C@]4(C)O3)cc2)cc1 [Compound 171] ({Biphenylcarbonyl(4'-Bu)}-[Dab][Dab]AL-{boroAla((+)-pinanediol)}) | 7.57 | 0.71 (≈ 0.841 µM) | 6.28 | 0.25 (≈ 0.296 µM)
CCCCc1ccc(-c2ccc(C(=O)N[C@@H](CCCCN)C(=O)N[C@@H](CN)C(=O)N[C@@H](C)C(=O)N[C@@H](CC(C)C)C(=O)N[C@@H](C)B(O)O)cc2)cc1 [Compound 165] ({Biphenylcarbonyl(4'-Bu)}-K[Dap]AL-boroAla) | 6.92 | 0.63 (≈ 0.87 µM) | 6.39 | 0.63 (≈ 0.87 µM)
CCCCc1ccc(-c2ccc(C(=O)N[C@@H](CCCCN)C(=O)N[C@@H](CCC(=O)OCC)C(=O)N[C@@H](C)C(=O)N[C@@H](CCCCN)C(=O)N[C@@H](C)B3O[C@@H]4C[C@@H]5C[C@@H](C5(C)C)[C@]4(C)O3)cc2)cc1 [Compound 261] ({Biphenylcarbonyl(4'-Bu)}-KE(OEt)AK-{boroAla((+)-pinanediol)}) | 7.39 | 0.71 (≈ 0.752 µM) | 6.55 | 0.79 (≈ 0.837 µM)
CCCCc1ccc(-c2ccc(C(=O)N[C@@H](CCCCN)C(=O)N[C@H](C(=O)N[C@H](C(=O)N[C@@H](CCCCN)C(=O)N[C@@H](C)B(O)O)C3CC3)C(C)O)cc2)cc1 (some centres unmarked) [Compound 147] ({Biphenylcarbonyl(4'-Bu)}-K[Thr(3ξ)][Gly(cPr)]K-boroAla) | 7.85 | 0.25 (≈ 0.321 µM) | 7.01 | 0.31 (≈ 0.398 µM)
C[C@H](NC(=O)[C@H](CCCCN)NC(=O)[C@H](C)NC(=O)[C@@H](NC(=O)[C@H](CCN)NC(=O)c1ccc(-c2ccc(C(F)(F)F)cc2)cc1)[C@@H](C)O)B1OC2C[C@@H]3C[C@@H](C3(C)C)[C@]2(C)O1 (some centres unmarked) [Compound 237] | 7.80 | 0.71 (≈ 0.814 µM) | 6.68 | 2 (≈ 2.29 µM)
CCCCc1ccc(-c2c[nH]c(C(=O)N[C@@H](CCN)C(=O)N[C@H](C(=O)N[C@@H](C)C(=O)N[C@@H](CCCCN)C(=O)N[C@@H](C)B3O[C@@H]4C[C@@H]5C[C@@H](C5(C)C)[C@]4(C)O3)[C@@H](C)O)c2)cc1 [Compound 247] (X4-[Dab]TAK-{boroAla((+)-pinanediol)}) | 7.77 | 0.5 (≈ 0.589 µM) | 6.96 | 0.5 (≈ 0.589 µM)
CCCCc1ccc(-c2ccc(C(=O)NCCC(=O)N[C@@H](CCCCN)C(=O)N[C@H](C(=O)N[C@@H](C)C(=O)N[C@@H](Cc3ccc(O)cc3)C(=O)N[C@@H](C)B3OC4C[C@@H]5C[C@@H](C5(C)C)[C@]4(C)O3)[C@@H](C)O)cc2)cc1 (some centres unmarked) [Compound 225] ({Biphenylcarbonyl(4'-Bu)-βAla}-KTAY-X1) | 8.15 | 0.57 (≈ 0.573 µM) | 8.40 | 2 (≈ 2.01 µM)
CCCCc1ccc(-c2ccc(C(=O)N[C@@H](CCCCN)C(=O)N[C@@H](Cc3c[nH]cn3)C(=O)N[C@@H](C)C(=O)N[C@@H](CC(N)=O)C(=O)N[C@@H](C)B(O)O)cc2)cc1 [Compound 136] ({Biphenylcarbonyl(4'-Bu)}-KHAN-boroAla) | 7.85 | 1.4 (≈ 1.8 µM) | 7.41 | 1 (≈ 1.29 µM)
CCCCc1ccc(-c2ccc(C(=O)NCCC(=O)N[C@@H](CCCCN)C(=O)N[C@H](C(=O)N[C@@H](C)C(=O)N[C@@H](CCCCN)C(=O)N[C@@H](C)B3OC4C[C@@H]5C[C@@H](C5(C)C)[C@]4(C)O3)[C@@H](C)O)cc2)cc1 (some centres unmarked) [Compound 193] ({Biphenylcarbonyl(4'-Bu)-βAla}-KTAK-X1) | 7.82 | 0.16 (≈ 0.167 µM) | 8.52 | 5 (≈ 5.21 µM)
CCCCc1ccc(-c2ccc(C(=O)NCCC(=O)N[C@@H](CCCCN)C(=O)N[C@@H](Cc3ccc(O)cc3)C(=O)N[C@@H](C)C(=O)N[C@@H](CCCCN)C(=O)N[C@@H](C)B(O)O)cc2)cc1 [Compound 215] ({Biphenylcarbonyl(4'-Bu)-βAla}-KYAK-boroAla) | 7.11 | 0.5 (≈ 0.564 µM) | 7.77 | 4 (≈ 4.51 µM)
CCCCc1ccc(-c2ccc(C(=O)NCCC(=O)N[C@@H](CCCCN)C(=O)N[C@@H](CCCCN)C(=O)N[C@@H](C)C(=O)N[C@@H](CC(C)C)C(=O)N[C@@H](C)B3OC4C[C@@H]5C[C@@H](C5(C)C)[C@]4(C)O3)cc2)cc1 (some centres unmarked) [Compound 218] ({Biphenylcarbonyl(4'-Bu)-βAla}-KKAL-X1) | 8.16 | 0.5 (≈ 0.515 µM) | 7.89 | 1.3 (≈ 1.34 µM)
CCCCc1ccc(-c2ccc(C(=O)N[C@@H](CCN)C(=O)N[C@@H](CCN)C(=O)N[C@@H](C)C(=O)N[C@@H](CC)C(=O)N[C@@H](C)B3OC4C[C@@H]5C[C@@H](C5(C)C)[C@]4(C)O3)cc2)cc1 (some centres unmarked) [Compound 182] ({Biphenylcarbonyl(4'-Bu)}-[Dab][Dab]A[Abu]-X1) | 7.46 | 4 (≈ 4.9 µM) | 5.96 | 0.71 (≈ 0.87 µM)
CCCCc1ccc(-c2ccc(C(=O)NCCC(=O)N[C@@H](CCCCN)C(=O)N[C@@H](CCCCN)C(=O)N[C@@H](C)C(=O)N[C@@H](CCCCN)C(=O)N[C@@H](C)B3OC4C[C@@H]5C[C@@H](C5(C)C)[C@]4(C)O3)cc2)cc1 (some centres unmarked) [Compound 207] ({Biphenylcarbonyl(4'-Bu)-βAla}-KKAK-X1) | 7.06 | 0.099 (≈ 0.1 µM) | 7.89 | 2 (≈ 2.03 µM)
CCCCc1ccc(-c2ccc(C(=O)N[C@H](CCCCN)C(=O)N[C@H](C(=O)N[C@@H](C)C(=O)N[C@@H](CCCCN)C(=O)N[C@@H](C)B(O)O)C(C)O)cc2)cc1 (some centres unmarked) [Compound 160] ({Biphenylcarbonyl(4'-Bu)}-[dK][Thr(3ξ)]AK-boroAla) | 5.68 | 2.8 (≈ 3.71 µM) | 6.05 | 64 (≈ 84.9 µM)

— patent US9708368B2, “Linear peptide antibiotics” (priority 2012, dated 2017)
